From paper PMC5791972 (PLoS ONE, 2018)
Read-outs that look alike come from different tables or passages of the source.

Legend:
Nav1.2 = molecular target: T1, Nav1.2 (Homo sapiens, UniProt Q99250); experiment: Ion channel selectivity patch clamp; type: cell-based
T1 construct: The cDNAs for various full-length ion channels were subcloned into pcDNA5/TO; expressed in transfected cells

D1 (h) = molecular target: T2, D1 (h) (Homo sapiens, UniProt P21728); type: binding
T2 construct: host or cells: CHO cells

H1 (h) = molecular target: T3, H1 (h) (Homo sapiens, UniProt P35367); type: binding; conditions: 1.0E-06 M
T3 construct: host or cells: HEK-293 cells

MT3 (ML2) = molecular target: T4, MT3 (ML2) (Mesocricetus auratus, UniProt A0ABM2YAB8); type: binding, hamster
T4 construct: tissue Cerep; host or cells: hamster brain
T4 sequence (A0ABM2YAB8 1-231): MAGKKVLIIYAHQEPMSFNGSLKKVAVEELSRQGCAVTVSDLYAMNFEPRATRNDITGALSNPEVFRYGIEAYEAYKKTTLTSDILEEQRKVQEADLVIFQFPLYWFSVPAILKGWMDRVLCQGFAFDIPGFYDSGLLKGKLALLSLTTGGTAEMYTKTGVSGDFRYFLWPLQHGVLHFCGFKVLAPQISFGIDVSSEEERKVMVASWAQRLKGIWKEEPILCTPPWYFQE

MAO-A = molecular target: T5, MAO-A (Rattus norvegicus, UniProt P21396); type: binding; conditions: 1 h, 1.0E-06 M
T5 construct: tissue Cerep; host or cells: rat cerebral cortex
T5 sequence (P21396 1-526): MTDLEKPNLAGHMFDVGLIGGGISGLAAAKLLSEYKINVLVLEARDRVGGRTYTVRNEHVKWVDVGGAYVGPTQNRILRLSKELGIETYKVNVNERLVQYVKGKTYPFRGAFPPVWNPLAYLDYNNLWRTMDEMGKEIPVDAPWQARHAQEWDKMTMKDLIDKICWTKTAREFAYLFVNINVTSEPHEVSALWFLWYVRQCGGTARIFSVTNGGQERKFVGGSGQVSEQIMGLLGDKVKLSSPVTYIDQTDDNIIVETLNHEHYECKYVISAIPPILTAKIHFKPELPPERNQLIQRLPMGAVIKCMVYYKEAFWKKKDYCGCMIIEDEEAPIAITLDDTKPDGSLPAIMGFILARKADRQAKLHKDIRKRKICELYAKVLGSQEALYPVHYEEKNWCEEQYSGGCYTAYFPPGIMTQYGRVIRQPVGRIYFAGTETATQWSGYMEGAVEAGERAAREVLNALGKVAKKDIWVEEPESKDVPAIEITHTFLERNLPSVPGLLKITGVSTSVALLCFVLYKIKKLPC

M5 (h) = molecular target: T6, M5 (h) (Homo sapiens, UniProt P08912); type: binding
T6 construct: host or cells: CHO cells
T6 sequence (P08912 1-532): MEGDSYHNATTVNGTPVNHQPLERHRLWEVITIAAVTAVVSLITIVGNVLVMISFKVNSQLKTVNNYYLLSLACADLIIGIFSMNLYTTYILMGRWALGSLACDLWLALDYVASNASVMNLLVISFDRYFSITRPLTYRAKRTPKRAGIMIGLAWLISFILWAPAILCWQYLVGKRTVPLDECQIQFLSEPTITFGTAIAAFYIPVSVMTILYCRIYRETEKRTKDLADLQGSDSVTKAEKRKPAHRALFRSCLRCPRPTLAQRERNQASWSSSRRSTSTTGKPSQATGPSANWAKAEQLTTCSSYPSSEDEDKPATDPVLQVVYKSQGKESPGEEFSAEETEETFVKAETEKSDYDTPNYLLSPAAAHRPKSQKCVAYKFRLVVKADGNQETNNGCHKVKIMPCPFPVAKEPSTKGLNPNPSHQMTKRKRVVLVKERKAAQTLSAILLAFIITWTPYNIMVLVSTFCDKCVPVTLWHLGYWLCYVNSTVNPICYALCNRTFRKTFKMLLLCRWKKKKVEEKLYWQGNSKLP

δ2 (DOP) (h) = molecular target: T7, δ2 (DOP) (h) (Homo sapiens, UniProt P41143); type: binding; conditions: 1.0E-06 M
T7 construct: host or cells: CHO cells

5-HT2A (h) = molecular target: T8, 5-HT2A (h) (Homo sapiens, UniProt P28223); type: binding; conditions: 1.0E-06 M
T8 construct: host or cells: HEK-293 cells

5-HT2C (h) = molecular target: T9, 5-HT2C (h) (Homo sapiens, UniProt P28335); type: binding; conditions: 1 h, 1.0E-06 M
T9 construct: host or cells: HEK-293 cells
T9 sequence (P28335 33-458): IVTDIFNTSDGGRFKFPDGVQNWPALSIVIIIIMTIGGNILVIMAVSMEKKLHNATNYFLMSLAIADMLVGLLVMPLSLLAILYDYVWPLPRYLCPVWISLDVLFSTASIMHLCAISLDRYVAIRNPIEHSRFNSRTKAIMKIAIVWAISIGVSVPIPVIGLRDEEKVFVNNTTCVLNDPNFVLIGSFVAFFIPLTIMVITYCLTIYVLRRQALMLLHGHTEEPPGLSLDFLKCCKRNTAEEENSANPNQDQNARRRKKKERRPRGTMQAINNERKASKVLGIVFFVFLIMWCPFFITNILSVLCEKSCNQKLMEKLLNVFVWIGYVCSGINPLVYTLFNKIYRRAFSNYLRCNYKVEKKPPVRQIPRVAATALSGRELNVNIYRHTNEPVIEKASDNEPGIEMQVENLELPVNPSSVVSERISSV

5-HT transporter (h) = molecular target: T10, 5-HT transporter (h) (Homo sapiens, UniProt P31645); type: binding; conditions: 1 h
T10 construct: host or cells: CHO cells

PDE5 (h) (non-selective) = PDE5 (h) (non-selective) (Homo sapiens, UniProt O76074); experiment: biochemical
D2S (h) = D2S (h) (Homo sapiens, UniProt P14416); type: binding; design: host or cells: HEK-293 cells; conditions: 1.0E-06 M
Cav1.2 = Cav1.2 (Homo sapiens, UniProt Q13936); experiment: Ion channel selectivity patch clamp

T2 sequence (P21728 whole entry): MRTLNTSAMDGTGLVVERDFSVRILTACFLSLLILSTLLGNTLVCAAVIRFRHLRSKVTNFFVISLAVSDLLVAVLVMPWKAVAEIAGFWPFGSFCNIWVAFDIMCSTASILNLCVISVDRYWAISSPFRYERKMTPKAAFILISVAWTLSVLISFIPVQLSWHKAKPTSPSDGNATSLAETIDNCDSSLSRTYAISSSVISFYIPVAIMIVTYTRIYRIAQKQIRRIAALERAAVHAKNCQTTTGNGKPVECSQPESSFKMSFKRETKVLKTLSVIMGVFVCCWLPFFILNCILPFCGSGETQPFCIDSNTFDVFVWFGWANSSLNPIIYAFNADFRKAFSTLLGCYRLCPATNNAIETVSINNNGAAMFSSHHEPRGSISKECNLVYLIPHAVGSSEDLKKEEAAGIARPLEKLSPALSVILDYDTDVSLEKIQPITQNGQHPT
T8 sequence (P28223 whole entry): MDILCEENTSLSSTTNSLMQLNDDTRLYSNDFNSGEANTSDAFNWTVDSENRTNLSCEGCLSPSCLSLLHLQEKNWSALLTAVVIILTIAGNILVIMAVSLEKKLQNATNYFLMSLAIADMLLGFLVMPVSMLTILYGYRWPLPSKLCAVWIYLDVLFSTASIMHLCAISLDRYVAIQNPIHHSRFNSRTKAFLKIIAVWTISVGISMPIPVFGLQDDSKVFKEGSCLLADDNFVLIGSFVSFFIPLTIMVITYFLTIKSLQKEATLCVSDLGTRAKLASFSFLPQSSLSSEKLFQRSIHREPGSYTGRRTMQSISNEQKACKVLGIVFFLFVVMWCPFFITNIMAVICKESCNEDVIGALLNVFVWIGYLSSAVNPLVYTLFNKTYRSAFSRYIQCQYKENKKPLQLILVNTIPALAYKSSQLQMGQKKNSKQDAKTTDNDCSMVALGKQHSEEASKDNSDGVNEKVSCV
T10 sequence (P31645 whole entry): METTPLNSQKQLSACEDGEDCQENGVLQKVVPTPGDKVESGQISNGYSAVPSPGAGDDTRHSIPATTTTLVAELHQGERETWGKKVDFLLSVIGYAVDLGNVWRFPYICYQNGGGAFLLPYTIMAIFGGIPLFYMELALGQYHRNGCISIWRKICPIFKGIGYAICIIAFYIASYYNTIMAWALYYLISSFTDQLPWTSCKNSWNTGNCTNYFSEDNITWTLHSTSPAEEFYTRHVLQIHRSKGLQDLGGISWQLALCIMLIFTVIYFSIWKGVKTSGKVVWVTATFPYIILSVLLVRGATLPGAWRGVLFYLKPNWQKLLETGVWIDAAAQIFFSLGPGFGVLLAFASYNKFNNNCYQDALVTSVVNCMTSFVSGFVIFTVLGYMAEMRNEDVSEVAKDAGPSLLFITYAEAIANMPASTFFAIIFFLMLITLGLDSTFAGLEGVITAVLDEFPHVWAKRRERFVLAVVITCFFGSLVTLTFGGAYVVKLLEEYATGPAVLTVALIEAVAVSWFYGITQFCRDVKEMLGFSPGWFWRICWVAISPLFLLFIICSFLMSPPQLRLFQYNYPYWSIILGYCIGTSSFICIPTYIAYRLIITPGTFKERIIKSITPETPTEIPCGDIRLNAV
T3 sequence (P35367 whole entry): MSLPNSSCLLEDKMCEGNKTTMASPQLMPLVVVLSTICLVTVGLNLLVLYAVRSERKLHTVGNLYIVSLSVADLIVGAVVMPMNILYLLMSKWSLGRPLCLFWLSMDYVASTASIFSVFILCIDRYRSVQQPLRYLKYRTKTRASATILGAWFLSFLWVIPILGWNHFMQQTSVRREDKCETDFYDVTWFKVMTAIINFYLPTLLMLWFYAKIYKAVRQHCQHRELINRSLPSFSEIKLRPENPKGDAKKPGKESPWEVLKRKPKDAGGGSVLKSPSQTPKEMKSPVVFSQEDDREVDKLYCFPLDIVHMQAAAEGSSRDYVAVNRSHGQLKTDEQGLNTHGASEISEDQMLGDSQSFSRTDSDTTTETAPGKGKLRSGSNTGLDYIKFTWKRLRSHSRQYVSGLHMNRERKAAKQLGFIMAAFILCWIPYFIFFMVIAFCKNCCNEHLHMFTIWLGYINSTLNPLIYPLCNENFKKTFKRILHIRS
Sequence of D2S (h) (P14416 1-414 isoform P14416-2): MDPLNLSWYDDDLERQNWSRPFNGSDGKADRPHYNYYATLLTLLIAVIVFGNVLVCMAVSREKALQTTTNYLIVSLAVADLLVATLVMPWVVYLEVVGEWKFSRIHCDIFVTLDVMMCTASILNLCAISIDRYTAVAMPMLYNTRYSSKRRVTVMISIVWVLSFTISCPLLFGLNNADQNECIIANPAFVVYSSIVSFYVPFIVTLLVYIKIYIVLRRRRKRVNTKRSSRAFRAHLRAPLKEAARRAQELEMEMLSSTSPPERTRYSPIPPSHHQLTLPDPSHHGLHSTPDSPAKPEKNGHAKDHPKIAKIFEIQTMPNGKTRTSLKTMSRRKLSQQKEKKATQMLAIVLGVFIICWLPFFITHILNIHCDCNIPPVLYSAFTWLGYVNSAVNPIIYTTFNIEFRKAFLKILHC
T7 sequence (P41143 whole entry): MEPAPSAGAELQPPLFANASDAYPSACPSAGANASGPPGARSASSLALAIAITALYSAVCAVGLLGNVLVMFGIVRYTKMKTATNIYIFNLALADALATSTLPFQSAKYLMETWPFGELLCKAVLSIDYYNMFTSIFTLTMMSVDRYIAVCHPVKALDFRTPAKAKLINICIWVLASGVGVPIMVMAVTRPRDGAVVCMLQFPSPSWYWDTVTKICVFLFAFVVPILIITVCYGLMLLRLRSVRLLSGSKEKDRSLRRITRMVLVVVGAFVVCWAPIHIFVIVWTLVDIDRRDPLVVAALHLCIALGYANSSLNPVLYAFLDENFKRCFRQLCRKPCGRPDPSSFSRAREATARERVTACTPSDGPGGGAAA
T1 sequence (Q99250 whole entry): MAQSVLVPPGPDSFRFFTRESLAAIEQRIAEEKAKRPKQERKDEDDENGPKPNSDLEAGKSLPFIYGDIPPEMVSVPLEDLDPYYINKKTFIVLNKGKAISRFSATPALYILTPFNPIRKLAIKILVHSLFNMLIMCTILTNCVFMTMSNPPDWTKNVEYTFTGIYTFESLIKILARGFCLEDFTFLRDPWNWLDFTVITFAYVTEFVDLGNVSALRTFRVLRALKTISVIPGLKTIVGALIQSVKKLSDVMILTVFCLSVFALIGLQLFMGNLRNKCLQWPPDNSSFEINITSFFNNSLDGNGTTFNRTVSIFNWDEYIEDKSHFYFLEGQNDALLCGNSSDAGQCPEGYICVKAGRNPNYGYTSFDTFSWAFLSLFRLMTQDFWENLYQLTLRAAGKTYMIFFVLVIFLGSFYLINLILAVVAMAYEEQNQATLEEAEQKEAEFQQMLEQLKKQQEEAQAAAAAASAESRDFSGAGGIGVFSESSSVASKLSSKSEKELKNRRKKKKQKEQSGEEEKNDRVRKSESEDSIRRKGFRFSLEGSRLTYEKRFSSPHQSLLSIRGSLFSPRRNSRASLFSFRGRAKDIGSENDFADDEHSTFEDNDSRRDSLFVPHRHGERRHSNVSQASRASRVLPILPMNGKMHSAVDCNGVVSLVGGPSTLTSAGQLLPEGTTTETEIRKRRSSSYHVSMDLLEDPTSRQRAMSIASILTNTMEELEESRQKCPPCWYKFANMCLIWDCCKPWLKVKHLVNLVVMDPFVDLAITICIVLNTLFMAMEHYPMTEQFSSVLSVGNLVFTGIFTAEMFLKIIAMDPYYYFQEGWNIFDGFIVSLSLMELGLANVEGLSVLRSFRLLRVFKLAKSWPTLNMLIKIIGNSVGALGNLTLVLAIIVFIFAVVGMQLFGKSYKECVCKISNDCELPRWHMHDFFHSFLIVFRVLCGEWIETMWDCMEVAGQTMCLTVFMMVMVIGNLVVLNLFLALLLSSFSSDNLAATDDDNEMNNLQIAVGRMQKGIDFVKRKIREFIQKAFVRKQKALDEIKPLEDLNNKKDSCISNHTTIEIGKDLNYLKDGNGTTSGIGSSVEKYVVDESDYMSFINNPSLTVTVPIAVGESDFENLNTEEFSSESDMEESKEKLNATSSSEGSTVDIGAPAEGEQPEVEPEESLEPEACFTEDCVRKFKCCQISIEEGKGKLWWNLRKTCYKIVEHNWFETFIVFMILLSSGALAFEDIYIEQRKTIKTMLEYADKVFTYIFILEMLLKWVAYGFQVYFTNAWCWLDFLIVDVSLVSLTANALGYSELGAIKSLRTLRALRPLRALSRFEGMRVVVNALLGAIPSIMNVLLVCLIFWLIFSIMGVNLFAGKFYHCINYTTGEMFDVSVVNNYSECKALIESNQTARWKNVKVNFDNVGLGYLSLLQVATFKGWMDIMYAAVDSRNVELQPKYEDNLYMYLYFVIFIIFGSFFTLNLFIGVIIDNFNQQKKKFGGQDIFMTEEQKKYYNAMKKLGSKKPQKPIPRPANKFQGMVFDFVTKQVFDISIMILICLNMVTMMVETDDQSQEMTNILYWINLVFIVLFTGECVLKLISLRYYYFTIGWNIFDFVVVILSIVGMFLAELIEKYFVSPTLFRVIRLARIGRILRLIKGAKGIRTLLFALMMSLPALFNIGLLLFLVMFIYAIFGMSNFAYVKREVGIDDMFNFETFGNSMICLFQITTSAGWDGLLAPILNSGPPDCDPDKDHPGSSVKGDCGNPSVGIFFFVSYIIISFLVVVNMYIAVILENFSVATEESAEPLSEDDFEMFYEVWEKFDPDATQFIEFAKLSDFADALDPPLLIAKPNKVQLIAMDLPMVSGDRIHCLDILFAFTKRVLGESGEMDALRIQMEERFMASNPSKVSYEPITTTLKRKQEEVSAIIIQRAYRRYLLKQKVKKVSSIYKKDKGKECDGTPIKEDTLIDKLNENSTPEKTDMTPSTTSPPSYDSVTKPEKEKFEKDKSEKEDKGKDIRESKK

SMILES	IC50 (Nav1.2) [µM]	inhibition at 1 µM (D1 (h); read-out: % Inhibition 1st) [%]	inhibition at 1 µM (D1 (h); read-out: % Inhibition 2nd) [%]	inhibition at 1 µM (D1 (h); read-out: % Inhibition Mean) [%]	inhibition at 1 µM (H1 (h); read-out: % Inhibition 1st) [%]	inhibition at 1 µM (H1 (h); read-out: % Inhibition 2nd) [%]	inhibition at 1 µM (H1 (h); read-out: % Inhibition Mean) [%]	inhibition at 1 µM (MT3 (ML2); read-out: % Inhibition 1st) [%]	inhibition at 1 µM (MT3 (ML2); read-out: % Inhibition 2nd) [%]	inhibition at 1 µM (MT3 (ML2); read-out: % Inhibition Mean) [%]	inhibition at 1 µM (MAO-A; read-out: % Inhibition 1st) [%]	inhibition at 1 µM (MAO-A; read-out: % Inhibition 2nd) [%]	inhibition at 1 µM (MAO-A; read-out: % Inhibition Mean) [%]	inhibition at 1 µM (M5 (h); read-out: % Inhibition 1st) [%]	inhibition at 1 µM (M5 (h); read-out: % Inhibition 2nd) [%]	inhibition at 1 µM (M5 (h); read-out: % Inhibition Mean) [%]	inhibition at 1 µM (δ2 (DOP) (h); read-out: % Inhibition 1st) [%]	inhibition at 1 µM (δ2 (DOP) (h); read-out: % Inhibition 2nd) [%]	inhibition at 1 µM (δ2 (DOP) (h); read-out: % Inhibition Mean) [%]	inhibition at 1 µM (5-HT2A (h); read-out: % Inhibition 1st) [%]	other results
Cn1c(=O)n(CCCO)c(=O)c2c1nc(Oc1cccc(Cl)c1)n2Cc1ccc(Cl)cc1 [HC-070]	> 1.9	3	-4.8	-0.9	-15.6	-11.4	-13.5	46.1	49.5	47.8	12.6	13.1	12.8	-7.3	10.1	1.4	6.8	5.9	6.3	-1.3	inhibition at 1 µM (5-HT2A (h); read-out: % Inhibition 2nd): 6.1%; inhibition at 1 µM (5-HT2A (h); read-out: % Inhibition Mean): 2.4%; inhibition at 1 µM (5-HT2C (h); read-out: % Inhibition 1st): -13.4%; inhibition at 1 µM (5-HT2C (h); read-out: % Inhibition 2nd): -9.5%; inhibition at 1 µM (5-HT2C (h); read-out: % Inhibition Mean): -11.5%; inhibition at 1 µM (5-HT transporter (h); read-out: % Inhibition 1st): -0.3%; inhibition at 1 µM (5-HT transporter (h); read-out: % Inhibition 2nd): 18.4%; inhibition at 1 µM (5-HT transporter (h); read-out: % Inhibition Mean): 9.1%; inhibition at 1 µM (PDE5 (h) (non-selective); read-out: % Inhibition 1st): 27.3%; inhibition at 1 µM (PDE5 (h) (non-selective); read-out: % Inhibition 2nd): 50.4%; inhibition at 1 µM (PDE5 (h) (non-selective); read-out: % Inhibition Mean): 38.9%; inhibition at 1 µM (D2S (h); read-out: % Inhibition 1st): -3%; inhibition at 1 µM (D2S (h); read-out: % Inhibition 2nd): 3.4%; inhibition at 1 µM (D2S (h); read-out: % Inhibition Mean): 0.2%; IC50 (Cav1.2): > 1.9 µM
Cn1c(=O)n(CCCO)c(=O)c2c1nc(Oc1cccc(OC(F)(F)F)c1)n2Cc1ccc(Cl)cc1 [HC-608]	> 1.64	1.1	5	3.1	-8.1	-0.9	-4.5	-0.7	1.2	0.2	-3.8	3.6	-0.1	-15.6	-12.8	-14.2	-10.8	3.1	-3.9	1.8	inhibition at 1 µM (5-HT2A (h); read-out: % Inhibition 2nd): -14.3%; inhibition at 1 µM (5-HT2A (h); read-out: % Inhibition Mean): -6.2%; inhibition at 1 µM (5-HT2C (h); read-out: % Inhibition 1st): -8.5%; inhibition at 1 µM (5-HT2C (h); read-out: % Inhibition 2nd): -4.7%; inhibition at 1 µM (5-HT2C (h); read-out: % Inhibition Mean): -6.6%; inhibition at 1 µM (5-HT transporter (h); read-out: % Inhibition 1st): -6.2%; inhibition at 1 µM (5-HT transporter (h); read-out: % Inhibition 2nd): 4.6%; inhibition at 1 µM (5-HT transporter (h); read-out: % Inhibition Mean): -0.8%; inhibition at 1 µM (PDE5 (h) (non-selective); read-out: % Inhibition 1st): 54.6%; inhibition at 1 µM (PDE5 (h) (non-selective); read-out: % Inhibition 2nd): 59.4%; inhibition at 1 µM (PDE5 (h) (non-selective); read-out: % Inhibition Mean): 57%; inhibition at 1 µM (D2S (h); read-out: % Inhibition 1st): 4.6%; inhibition at 1 µM (D2S (h); read-out: % Inhibition 2nd): 0.2%; inhibition at 1 µM (D2S (h); read-out: % Inhibition Mean): 2.4%; IC50 (Cav1.2): > 1.64 µM
